Structures can show the parent of a compound that is named as a salt.
Experiments:
Human plasma DPP-IV = molecular target: T1, Human plasma DPP-IV (Homo sapiens, UniProt P27487); test: Plasma DPP-IV inhibitory activity, fluorescence assay with Gly-Pro-MCA (human plasma); assay type: biochemical; conditions: for IC50: human plasma (10-fold dilution), Gly-Pro-MCA substrate, room temperature, 60 min
T1 construct: Human plasma DPP-IV; from tissue; host or cells: human plasma
Description: (§1) The plasma DPP-IV inhibitory activity of human and rat was measured according to the fluorescence assay method and under the conditions of Table 10. As a DPP-IV specific fluorescent substrate, Gly-Pro-MCA (Peptide Institute, Inc.) was used, and reaction solutions having the following compositions containing various concentrations of the test substance were incubated at room temperature for 60 min and the fluorescence intensity (Excitation 360 nm/Emission 465 nm) measured (SPECTRA FLUOR, Tecan Group, Ltd.) was taken as the DPP-IV activity.
(§2) The inhibitory ratio to a solvent addition group was calculated and IC50 value was determined by logistic analysis.

Rat plasma DPP-IV = molecular target: T2, Rat plasma DPP-IV (Rattus norvegicus, UniProt P14740); test: Plasma DPP-IV inhibitory activity, fluorescence assay with Gly-Pro-MCA (rat plasma); assay type: biochemical; conditions: rat plasma (10-fold dilution), Gly-Pro-MCA substrate, room temperature, 60 min
T2 construct: Rat plasma DPP-IV; from tissue; host or cells: rat plasma
Description: as §1, §2

T1 sequence (P27487 39-766 limits assumed): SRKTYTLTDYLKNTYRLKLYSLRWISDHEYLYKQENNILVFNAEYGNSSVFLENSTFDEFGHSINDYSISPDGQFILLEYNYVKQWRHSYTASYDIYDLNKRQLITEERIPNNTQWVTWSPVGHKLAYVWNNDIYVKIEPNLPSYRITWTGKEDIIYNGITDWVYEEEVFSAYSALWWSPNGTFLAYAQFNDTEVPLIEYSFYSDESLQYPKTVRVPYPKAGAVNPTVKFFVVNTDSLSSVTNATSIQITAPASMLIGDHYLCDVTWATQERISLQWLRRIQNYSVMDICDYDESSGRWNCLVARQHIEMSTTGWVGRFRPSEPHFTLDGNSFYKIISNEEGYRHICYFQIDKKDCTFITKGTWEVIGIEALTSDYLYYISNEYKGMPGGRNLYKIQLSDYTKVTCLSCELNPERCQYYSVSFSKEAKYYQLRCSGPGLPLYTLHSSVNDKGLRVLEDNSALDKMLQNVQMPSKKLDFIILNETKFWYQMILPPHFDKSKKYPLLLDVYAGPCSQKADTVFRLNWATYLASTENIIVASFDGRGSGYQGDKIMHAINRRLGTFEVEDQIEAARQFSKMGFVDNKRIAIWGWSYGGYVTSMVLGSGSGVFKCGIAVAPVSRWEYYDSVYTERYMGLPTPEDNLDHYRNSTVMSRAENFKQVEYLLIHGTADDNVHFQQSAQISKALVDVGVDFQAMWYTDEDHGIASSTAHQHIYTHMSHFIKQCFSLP
T2 sequence (P14740 38-767 limits assumed): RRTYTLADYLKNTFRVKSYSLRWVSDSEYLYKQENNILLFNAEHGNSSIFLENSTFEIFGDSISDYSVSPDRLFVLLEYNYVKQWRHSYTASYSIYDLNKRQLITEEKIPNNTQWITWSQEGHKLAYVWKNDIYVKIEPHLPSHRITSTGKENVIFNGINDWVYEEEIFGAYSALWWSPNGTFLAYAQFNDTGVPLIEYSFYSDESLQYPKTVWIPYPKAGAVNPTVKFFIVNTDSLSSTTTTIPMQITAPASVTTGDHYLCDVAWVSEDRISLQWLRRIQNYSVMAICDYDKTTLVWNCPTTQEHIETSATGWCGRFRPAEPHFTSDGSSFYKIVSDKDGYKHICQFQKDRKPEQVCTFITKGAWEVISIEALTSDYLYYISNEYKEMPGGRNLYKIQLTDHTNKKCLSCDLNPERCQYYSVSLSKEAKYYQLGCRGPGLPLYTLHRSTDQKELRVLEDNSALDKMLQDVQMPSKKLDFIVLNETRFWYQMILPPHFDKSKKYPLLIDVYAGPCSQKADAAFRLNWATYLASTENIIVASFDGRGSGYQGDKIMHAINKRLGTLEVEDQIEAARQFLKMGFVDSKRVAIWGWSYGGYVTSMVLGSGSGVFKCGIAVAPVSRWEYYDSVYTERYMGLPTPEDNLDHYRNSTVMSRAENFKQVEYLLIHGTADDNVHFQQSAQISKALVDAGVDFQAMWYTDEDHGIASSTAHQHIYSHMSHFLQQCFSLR

In the case of `N#Cc1ccc(NCCCC[C@H](N)C(=O)N2CCSC2)nc1` [Example 6, 3-[(S)-2-amino-6-(5-cyanopyridin-2-ylamino)hexanoyl]-1,3-thiazolidine dihydrochloride], the IC50 (Human plasma DPP-IV) is reported as 34 nM and the IC50 (Rat plasma DPP-IV) is reported as 29 nM.

`N#Cc1ccc(NCCCC[C@H](N)C(=O)N2CCSC2)cc1C(F)(F)F` [Example 13, 3-{(S)-2-amino-6-[4-cyano-3-(trifluoromethyl)phenylamino]hexanoyl}-1,3-thiazolidine] gave an IC50 (Human plasma DPP-IV) of 66 nM and an IC50 (Rat plasma DPP-IV) of 40 nM.

`N[C@@H](CCCCN1CCN(c2cc(C(F)(F)F)nc3ccccc23)CC1)C(=O)N1CCSC1` [Example 28, 3-{(S)-2-amino-6-[4-(2-trifluoromethyl-4-quinolyl)piperazin-1-yl]hexanoyl}-1,3-thiazolidine dihydrochloride] gave an IC50 (Human plasma DPP-IV) of 35 nM and an IC50 (Rat plasma DPP-IV) of 49 nM.

With `CS(=O)(=O)c1ccc(NCCCC[C@H](N)C(=O)N2CCSC2)cc1` [Example 7, 3-[(S)-2-amino-6-(4-methanesulfonylphenylamino)hexanoyl]-1,3-thiazolidine] the IC50 (Human plasma DPP-IV) was 15 nM and the IC50 (Rat plasma DPP-IV) was 13 nM.

In the case of `O=C([C@@H]1C[C@H](N2CCN(c3cc(C(F)(F)F)nc4ccc(O)cc34)CC2)CN1)N1CCSC1` [Example 48, 3-{(2S,4S)-4-[4-(2-trifluoromethyl-6-hydroxy-4-quinolyl)-1-piperazinyl]-2-pyrrolidinylcarbonyl}-1,3-thiazolidine dihydrochloride], the IC50 (Human plasma DPP-IV) is reported as 0.25 nM and the IC50 (Rat plasma DPP-IV) is reported as 0.37 nM.

For `N[C@@H](CCCCNc1ccc([N+](=O)[O-])cn1)C(=O)N1CCSC1` [Example 14, 3-[(S)-2-amino-6-(5-nitropyridin-2-ylamino)hexanoyl]-1,3-thiazolidine], the IC50 (Human plasma DPP-IV) was 29 nM and the IC50 (Rat plasma DPP-IV) was 18 nM.

`NCCCC[C@H](N)C(=O)N1CCSC1.O=C(O)C(F)(F)F.O=C(O)C(F)(F)F` [comparison compound 1, 3-L-lysyl-1,3-thiazolidine ditrifluoroacetate, reference compound] was tested, and the IC50 (Human plasma DPP-IV) was 856 nM, the “plasma DPP-IV inhibitory activity (assessment in words)” value (Human plasma DPP-IV; statement in the text on Experimental Example 1, species not distinguished) was “sufficient” and the IC50 (Rat plasma DPP-IV) was 719 nM.

In the case of `Cc1cc(C)n(C2CCN([C@@H]3CN[C@H](C(=O)N4CCSC4)C3)CC2)n1` [Example 56, 3-{(2S,4S)-4-[4-(3,5-dimethyl-1-pyrazolyl)piperidino]-2-pyrrolidinylcarbonyl}-1,3-thiazolidine trihydrochloride], the IC50 (Human plasma DPP-IV) is reported as 0.91 nM and the IC50 (Rat plasma DPP-IV) is reported as 1.17 nM.

For `COc1cc(OC)c2nc(C(F)(F)F)cc(N3CCN([C@@H]4CN[C@H](C(=O)N5CCSC5)C4)CC3)c2c1` [Example 55, 3-{(2S,4S)-4-[4-(2-trifluoromethyl-6,8-dimethoxy-4-quinolyl)-1-piperazinyl]-2-pyrrolidinylcarbonyl}-1,3-thiazolidine dihydrochloride], the IC50 (Human plasma DPP-IV) was 0.24 nM and the IC50 (Rat plasma DPP-IV) was 0.3 nM.

`N#Cc1ccc(NCCCC[C@H](N)C(=O)N2CCSC2)c([N+](=O)[O-])c1` [Example 5, 3-[(S)-2-amino-6-(4-cyano-2-nitrophenylamino)hexanoyl]-1,3-thiazolidine] showed an IC50 (Human plasma DPP-IV) of 28 nM and an IC50 (Rat plasma DPP-IV) of 19 nM.

Source: patent US7790725B2, “Thiazolidine derivatives and medicinal use thereof” (Mitsubishi Tanabe Pharma Corporation, priority 2001, dated 2010)
